Tests used:
[1] = target: T1, G-protein coupled receptor 3 (Homo sapiens, UniProt P46089); assay: Agonist activity at human GPR3 expressed in HEK293 cells assessed as increase in cAMP accumulation incubated for 30 mins by HTRF assay; assay type: functional, cell-based
[2] = target: T1, G-protein coupled receptor 3; assay: Agonist activity at human GPR3 expressed in HEK293 cells assessed as increase in cAMP accumulation at 1 uM incubated for 30 mins by AlphaScreen assay relative to control; assay type: functional, cell-based

T1 sequence (P46089 whole entry): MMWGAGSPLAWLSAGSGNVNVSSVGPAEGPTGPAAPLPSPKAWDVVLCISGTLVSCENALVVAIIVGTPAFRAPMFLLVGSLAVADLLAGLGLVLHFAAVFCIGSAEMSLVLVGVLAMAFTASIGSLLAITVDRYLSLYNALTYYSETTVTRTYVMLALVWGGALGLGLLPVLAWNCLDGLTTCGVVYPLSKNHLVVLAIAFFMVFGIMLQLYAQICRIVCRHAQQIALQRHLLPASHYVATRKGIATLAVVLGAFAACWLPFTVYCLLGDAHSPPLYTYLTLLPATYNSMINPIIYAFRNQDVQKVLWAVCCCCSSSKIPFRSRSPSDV

| Compound | EC50 [1] [µM] | Activity [2] [%] |
| --- | --- | --- |
| c1ccc2c(c1)sc1ccccc12 [DIBENZOTHIOPHENE] | 81 |  |
| CN(C)C1(C)c2ccccc2-c2ccccc21 | > 100 |  |
| Cn1c2ccccc2c2ccccc21 | 40 |  |
| O=[N+]([O-])c1ccc2c(c1)[I+]c1ccccc1-2 | 1.34 |  |
| O=S1(=O)c2ccccc2-c2ccccc21 | 5.1 |  |
| NC1c2ccccc2-c2ccccc21 | > 100 |  |
| CCCCCCCCCCCCC/C=C/[C@@H](O)[C@@H](N)COP(=O)(O)O |  | 20 |
| c1ccc2c(c1)[nH]c1ccccc12 [CARBAZOLE] | 7.6 |  |
| CC1(N)c2ccccc2-c2ccccc21 | > 100 |  |

Second part, led by results:

| EC50 [1] [µM] | Compound | Activity [2] [%] |
| --- | --- | --- |
| 114 | C[N+]1(C)c2ccccc2-c2ccccc21 |  |
| 86 | Cc1nc2ccccc2c2ccccc12 |  |
| 67 | c1ccc2c(c1)cnc1ccccc12 [PHENANTHRIDINE] |  |
| 60 | CC1c2ccccc2-c2ccccc2N1C (stereo not given) |  |
| 382 | C[n+]1cc2ccccc2c2ccccc21 |  |
| 158 | O=CNC1c2ccccc2-c2ccccc21 |  |
| 45 | O=c1[nH]c2ccccc2c2ccccc12 |  |
| 19.3 | FC1(F)Oc2cc3c(cc2O1)-c1ccccc1[I+]3 |  |
| 66 | CC(C)(C)[S+]([O-])N=C1c2ccccc2-c2ccccc21 (stereo not given) |  |
| 21 | CN(C)C1c2ccccc2-c2ccccc21 |  |
| 105 | Fc1ccc2c(c1)oc1ccccc12 |  |

Reference: ChEMBL document CHEMBL5365417, “The development of diphenyleneiodonium analogs as GPR3 agonists” (Bioorg Med Chem Lett, 2023)
